Data as given in PubChem BioAssay AID292 (DTP/NCI, 2004).
Several values for one entry are separate records, joined by “and”; a condition that tells them apart may be missing. Equal entries are not always repeated. Toxic doses and inconclusive results are not listed.

Tested on: B6C3F1 mice, ip Sarcoma M5076, median survival T/C
Assay: NCI In Vivo Anticancer Drug Screen. Data for tumor model Sarcoma M5076 (intraperitoneal) in B6C3F1 mice
Conditions: endpoint: median survival time, schedule: Q04DX004 (ip), higher = longer survival
Outline: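 Tumour cells were transplanted into mice, compound or vehicle was given, survival of both groups was followed, and the treated figure was expressed over the control figure.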

[1] = dose: 25.0 mg/kg/injection, vehicle: saline with Tween-80
[2] = dose: 50.0 mg/kg/injection, vehicle: saline with Tween-80
[3] = dose: 100.0 mg/kg/injection, vehicle: saline with Tween-80
[4] = dose: 200.0 mg/kg/injection, vehicle: saline with Tween-80
[5] = dose: 50.0 mg/kg/injection, vehicle: Klucel (hydroxypropylcellulose) (HPC)
[6] = dose: 100.0 mg/kg/injection, vehicle: Klucel (hydroxypropylcellulose) (HPC)
[7] = dose: 400.0 mg/kg/injection, vehicle: saline with Tween-80
[8] = dose: 400.0 mg/kg/injection, vehicle: Klucel (hydroxypropylcellulose) (HPC)
[9] = dose: 50.0 mg/kg/injection, vehicle: saline
[10] = dose: 100.0 mg/kg/injection, vehicle: saline
[11] = dose: 800.0 mg/kg/injection, vehicle: saline with Tween-80
[12] = dose: 200.0 mg/kg/injection, vehicle: Klucel (hydroxypropylcellulose) (HPC)
[13] = dose: 25.0 mg/kg/injection, vehicle: Klucel (hydroxypropylcellulose) (HPC)
[14] = dose: 12.5 mg/kg/injection, vehicle: saline with Tween-80
[15] = dose: 200.0 mg/kg/injection, vehicle: saline
[16] = dose: 400.0 mg/kg/injection, vehicle: saline
[17] = dose: 50.0 mg/kg/injection, vehicle: suspension in saline
[18] = dose: 100.0 mg/kg/injection, vehicle: suspension in saline
[19] = dose: 200.0 mg/kg/injection, vehicle: suspension in saline
[20] = dose: 400.0 mg/kg/injection, vehicle: suspension in saline

Structure (SMILES): O=S1ON=C(C2CCC(C3=NOS(=O)O3)C2)O1 (stereo not drawn)
- T/C [1]: 108 % of control
- T/C [2]: 102 % of control
- T/C [3]: 103 % of control
- T/C [4]: 87 % of control

Structure (SMILES): N#Cc1c(-c2ccc(F)cc2)c(-c2ccc(F)cc2)nn(CCO)c1=O
- T/C (dose: 12.5 mg/kg/injection, vehicle: distilled water + Tween-80): 96 % of control and 106 % of control
- T/C (dose: 25.0 mg/kg/injection, vehicle: distilled water + Tween-80): 101 % of control and 102 % of control
- T/C (dose: 50.0 mg/kg/injection, vehicle: distilled water + Tween-80): 106 % of control and 111 % of control
- T/C (dose: 72.0 mg/kg/injection, vehicle: distilled water + Tween-80): 103 % of control
- T/C (dose: 100.0 mg/kg/injection, vehicle: distilled water + Tween-80): 120 % of control and 124 % of control
- T/C (dose: 120.0 mg/kg/injection, vehicle: distilled water + Tween-80): 115 % of control
- T/C (dose: 200.0 mg/kg/injection, vehicle: distilled water + Tween-80): 123 % of control
- T/C (dose: 333.0 mg/kg/injection, vehicle: distilled water + Tween-80): 150 % of control
- T/C (dose: 555.0 mg/kg/injection, vehicle: distilled water + Tween-80): 153 % of control

Structure (SMILES): CC(=O)C1C(=O)C(=O)N(c2ccc(C)cc2C)C1=O (stereo not drawn)
- T/C [5]: 102 % of control
- T/C [6]: 98 % of control

Structure (SMILES): CN1c2ccccc2C(=O)N2C(=O)CCC21C (stereo not drawn)
- T/C (dose: 18.75 mg/kg/injection, vehicle: saline with Tween-80): 100 % of control
- T/C (dose: 37.5 mg/kg/injection, vehicle: saline with Tween-80): 100 % of control
- T/C (dose: 75.0 mg/kg/injection, vehicle: saline with Tween-80): 102 % of control
- T/C (dose: 150.0 mg/kg/injection, vehicle: saline with Tween-80): 101 % of control

Structure (SMILES): CCNC(=O)[B-][N+](C)(C)C
- T/C [2]: 96 % of control
- T/C [3]: 104 % of control
- T/C [4]: 102 % of control
- T/C [7]: 92 % of control

Structure (SMILES): COc1nc(C(Cl)(Cl)Cl)c(Cl)c(OC)c1Cl
- T/C [5]: 99 % of control
- T/C [6]: 114 % of control
- T/C (dose: 179.0 mg/kg/injection, vehicle: Klucel (hydroxypropylcellulose) (HPC)): 152 % of control
- T/C (dose: 179.6 mg/kg/injection, vehicle: Klucel (hydroxypropylcellulose) (HPC)): 121 % of control
- T/C [8]: 168 % of control

Structure (SMILES): NC(=O)CCC(N)C(=O)O (stereo not drawn)
- T/C (dose: 3.12 mg/kg/injection, vehicle: saline): 100 % of control
- T/C (dose: 6.25 mg/kg/injection, vehicle: saline): 104 % of control and 105 % of control
- T/C (dose: 12.5 mg/kg/injection, vehicle: saline): 97 % of control and 99 % of control
- T/C (dose: 25.0 mg/kg/injection, vehicle: saline): 98 % of control and 108 % of control
- T/C [9]: 105 % of control and 111 % of control
- T/C [10]: 103 % of control and 124 % of control

Structure (SMILES): Cc1cc(Br)c2nsnc2c1[N+](=O)[O-]
- T/C [2]: 96 % of control
- T/C [3]: 112 % of control
- T/C [4]: 104 % of control
- T/C [7]: 103 % of control
- T/C [11]: 87 % of control

Structure (SMILES): CCn1c2ccccc2c2cc(N=Nc3cc4ccccc4cc3O)ccc21
- T/C (dose: 43.75 mg/kg/injection, vehicle: Klucel (hydroxypropylcellulose) (HPC)): 89 % of control

Structure (SMILES): Cc1cc(C)cc(N(C2=NCCS2)C2=NCCS2)c1
- T/C [5]: 100 % of control
- T/C [6]: 96 % of control
- T/C [12]: 92 % of control
- T/C [8]: 99 % of control

Structure (SMILES): CC1=C(/C=C/C(C)=C/C=C/C(C)=C/C=O)C(C)(C)CCC1
- T/C (dose: 75.0 mg/kg/injection, vehicle: saline + alcohol): 104 % of control
- T/C (dose: 150.0 mg/kg/injection, vehicle: saline + alcohol): 96 % of control

Structure (SMILES): Cc1nc2ccccc2c2nnc(SCC(=O)N(Cc3ccccc3)c3ccccc3)n12
- T/C [13]: 98 % of control
- T/C [5]: 115 % of control
- T/C [6]: 114 % of control
- T/C [12]: 104 % of control
- T/C [8]: 112 % of control

Structure (SMILES): [NH-]C(CCC(N)=O)C(=O)O.[NH-]C(CCC(N)=O)C(=O)O.[Zn+2] (stereo not drawn)
- T/C [14]: 103 % of control
- T/C [1]: 98 % of control
- T/C [2]: 96 % of control

Structure (SMILES): Clc1ccccc1C(Nc1cnccn1)Nc1cnccn1
- T/C [2]: 105 % of control and 112 % of control
- T/C [3]: 105 % of control
- T/C [4]: 103 % of control and 109 % of control
- T/C [7]: 110 % of control and 114 % of control
- T/C [11]: 100 % of control

Structure (SMILES): CCNC(=O)OCc1cnc(C)c(O)c1COC(=O)NCC
- T/C [9]: 97 % of control
- T/C [10]: 107 % of control
- T/C [15]: 108 % of control
- T/C [16]: 102 % of control

Structure (SMILES): NC(=S)c1ncn(C2OC(COC=O)C(OC=O)C2OC=O)c1NC=O (stereo not drawn)
- T/C (dose: 86.4 mg/kg/injection, vehicle: Klucel (hydroxypropylcellulose) (HPC)): 182 % of control
- T/C (dose: 144.0 mg/kg/injection, vehicle: Klucel (hydroxypropylcellulose) (HPC)): 174 % of control
- T/C (dose: 240.0 mg/kg/injection, vehicle: Klucel (hydroxypropylcellulose) (HPC)): 184 % of control
- T/C [8]: 168 % of control and 198 % of control
- T/C (dose: 666.67 mg/kg/injection, vehicle: Klucel (hydroxypropylcellulose) (HPC)): 229 % of control

Structure (SMILES): O=C1C2CC(Cl)C(SSC3CC4C(=O)N(SC(Cl)(Cl)C(Cl)Cl)C(=O)C4CC3Cl)CC2C(=O)N1SC(Cl)(Cl)C(Cl)Cl (stereo not drawn)
- T/C [14]: 97 % of control
- T/C [1]: 95 % of control
- T/C [2]: 98 % of control and 105 % of control
- T/C [3]: 90 % of control and 97 % of control
- T/C [4]: 102 % of control and 117 % of control
- T/C [7]: 110 % of control
- T/C [11]: 109 % of control

Structure (SMILES): c1cc2c(c(CC3CO3)c1CC1CO1)OCCOCCOCCOCCO2 (stereo not drawn)
- T/C (dose: 25.0 mg/kg/injection, vehicle: saline + alcohol): 107 % of control
- T/C (dose: 50.0 mg/kg/injection, vehicle: saline + alcohol): 108 % of control
- T/C (dose: 100.0 mg/kg/injection, vehicle: saline + alcohol): 111 % of control
- T/C (dose: 200.0 mg/kg/injection, vehicle: saline + alcohol): 120 % of control

Structure (SMILES): C1OC1CO[C@@H]1CO[C@H]2[C@@H]1OC[C@H]2OCC1CO1 (stereo partly drawn)
- T/C [9]: 119 % of control
- T/C [17]: 119 % of control
- T/C [18]: 150 % of control
- T/C [15]: 186 % of control
- T/C [19]: 215 % of control
- T/C [16]: 183 % of control
- T/C [20]: 239 % of control

Structure (SMILES): NC(=S)N/N=C/c1ncccc1O
- T/C [17]: 103 % of control
- T/C [18]: 101 % of control
- T/C [19]: 101 % of control
- T/C [20]: 102 % of control

Structure (SMILES): N#CC1C(=O)NC(=O)C(C#N)C1C(Cl)(Cl)Cl (stereo not drawn)
- T/C [5]: 94 % of control
- T/C [6]: 95 % of control

Structure (SMILES): C=C(Cl)C(=NC(C)(C)C)Nc1ccccc1C
- T/C (dose: 3.0 mg/kg/injection, vehicle: Klucel (hydroxypropylcellulose) (HPC)): 98 % of control
- T/C (dose: 6.0 mg/kg/injection, vehicle: Klucel (hydroxypropylcellulose) (HPC)): 116 % of control
- T/C (dose: 6.25 mg/kg/injection, vehicle: Klucel (hydroxypropylcellulose) (HPC)): 108 % of control
- T/C (dose: 12.0 mg/kg/injection, vehicle: Klucel (hydroxypropylcellulose) (HPC)): 103 % of control
- T/C (dose: 24.0 mg/kg/injection, vehicle: Klucel (hydroxypropylcellulose) (HPC)): 98 % of control
- T/C [13]: 117 % of control
- T/C (dose: 48.0 mg/kg/injection, vehicle: Klucel (hydroxypropylcellulose) (HPC)): 104 % of control

Structure (SMILES): COc1ccc(C2NC(=S)NC(=O)C2C#N)cc1OC (stereo not drawn)
- T/C [5]: 95 % of control
- T/C [6]: 100 % of control
- T/C [12]: 106 % of control
- T/C [8]: 105 % of control
